Measured values from US20050054555A1, “Kahalalide compounds for use in cancer therapy” (priority 2001, published 2005).
“Also recorded” adds a separate entry of the source.

How the values were obtained:
[1] = test system: prostate cancer
[2] = test system: human patients afflicted with cancer; assay: Clinical programme (both phase I trials): toxicity summary; format: in vivo
Method: Clinical trials were carried out based on the following protocols:
(§1) The rate of subject entry and escalation to the next dose level will depend upon assessment of the safety profile of patients entered at each dose level. Toxicity will be evaluated and graded according to the Common Toxicity Criteria, version 2.0.

[3] = test system: solid tumours
Method: KHF-A-002-01. Phase I Clinical and Pharmacokinetic study to determine the safety of Kahalalide F administered as a weekly infusion over 1 hour in patients with solid tumours.
This trial was addressed to any solid tumours and was designed as a classical escalation. […] One cycle in this trial means a week, so 4 cycles mean 1 month of treatment.

[4] = test system: patients with solid tumours; assay: Phase I trial KHF-A-002-01: safety of Kahalalide F weekly infusion over 1 hour; format: in vivo, human
Source text: as §1
In order to minimize the number of patients treated at the subtoxic dose levels, a single patient will be treated per dose level with 100% dose escalation in the absence of any toxicity G2 (excluding alopecia) during their first course of treatment. After the occurrence of grade 2 toxicity (excluding asthenia, alopecia, nausea and vomiting or anemia), the dose level is expanded to three patients with only 50% incremental increase in dosage in advancing to the next dose level. For the occurrence of grade 3 non-hematological toxic effects the dose level should be expanded up to six patients. This second cohort of 3 patients will be included consecutively. If the first or second patient develops dose limiting toxicities no further patients will be treated at this dose level, it will be defined as MTD and the accrual will begin at a lower dose level. If only one DLT occurs at this dose level another 3 patients will be included at the next dose level with an increase of 25% only.
The maximum tolerated dose (MTD) is defined as the dose at which at least 2 out of 3 or more than 3 patients experience DLT. However, it is possible that additional patients may experience DLT due to the timing of patient enrollment into that dose level.
The toxicity will be evaluated and clasified in grades according to the Common Toxicity Criteria (CTC) version NCI 2.0, March 1998.
Dose Limiting Toxicities (DLTs) are Defined as Follows: […]
ANC <500/mm3 for more than 5 days.
ANC <500/mm3 with a temperature of 38'5 or more.
Any other non-hematological grade 3-4 toxicity excluding: nausea, emesis without prophilaxis
G3 transaminases increase >14 days
Hypersensibility reactions

[5] = test system: advanced or metastatic androgen refractory prostate cancer
Method: OBJECTIVE: In the present phase I clinical and pharmacokinetic (PK) study the toxicity profiles PK and anti-tumour activity of KF are investigated. METHODS: KF is administered as an intravenous infusion over one hour, during five consecutive days every three weeks in patients with advanced or metastatic androgen refractory prostate cancer. On the basis of the MTD values defined in mice, a starting dose of 20 μg/m2/day was selected, which is equivalent to a total dose of 100 μg/m2. PK of KF were determined in plasma during the first course. Bioanalysis of KF was performed by LC-MS/MS. LDH, AF and especially PSA levels of each patient were also evaluated during the study to determine the activity of KF. […] One patient per level was entered at 20, 40, 80 and 160 μg/m2/day. […] The first patient of this study was re-entered at this dose level.

[6] = test system: female mice; conditions: single bolus iv injection; cited from earlier work
[7] = 400 mcg/m2 weekly, 6 months (24 cycles)
[8] = weekly 1 h infusion, all dose levels
[9] = weekly 1 h infusion, all dose levels, 19 patients evaluated
[10] = weekly 1 h infusion, all dose levels, head prints 20 patients

C/C=C1\NC(=O)[C@H](Cc2ccccc2)NC(=O)[C@@H](C(C)C)NC(=O)[C@@H](C(C)CC)NC(=O)[C@H](NC(=O)C(NC(=O)[C@H](CCCN)NC(=O)[C@H]2CCCN2C(=O)[C@H](NC(=O)[C@@H](NC(=O)[C@@H](NC(=O)[C@H](NC(=O)CCCC(C)C)C(C)C)C(C)O)C(C)C)C(C)C)C(C)CC)C(C)OC(=O)[C@H](C(C)C)NC1=O (single isomer, unassigned) [kahalalide F]
concentration from which active in the clonogenic tumour assay [1]: ≥ 15 ng/mL | Grade 1-2 neutropenia, share of patients [2]: 10% | Grade 1 hypokalyemia, share of patients [2]: 20% | grade 1 hypophosphatemia, share of patients [2]: 10% | grade 1 renal toxicity, share of patients [2]: about 35% | grade 2 hypophosphatemia, share of patients [2]: 15% | grade 3-4 hematologic toxicities [2]: No grade 3-4 toxicities were reported | overall response in a patient with hepatocellular carcinoma [3, 7]: stable disease | response in a patient with hepatocellular carcinoma (target lesion) [3, 7]: Partial response in one target lesion | efficacy in a patient with epidermoid carcinoma of the cavum ([3]; 400 mcg/m2 weekly, ORL exploration): Subjective improvement and non evaluable response | efficacy in a patient with non small cell lung cancer ([3]; 530 mcg/m2 weekly, 4 months (16 infusions)): without evidence of progression disease | Efficacy (tumour type with hints of efficacy) ([3]; Level III, dose 530 weekly): NSCLC | efficacy in one patient with peritoneal mesothelioma ([3]; weekly schedule): clinical benefit with reduction of ascytes volume | incidence of grade 4 hypertransaminasemia ([4]; 800-1200 mcg/m2/wk): all the patients had grade 4 hypertransaminasemia | time of onset of grade 4 hypertransaminasemia after the infusion ([4]; 1200 mcg/m2 weekly): 5 h | Worst toxicity ([4]; Level VI, dose 1000 weekly, 3 patients): Hypersensitivity; also recorded: hypertrans | Bronchoconstriction observed ([4]; highest dose level (1000 and 1200)): two patients | reversibility of hypertransaminasemia overall ([4]; patients remained asymptomatic): completely reversible | reversibility of hypertransaminasemia ([4]; patients treated at 1000 and 1200): not reversible by day 8 | dose at which the DLT (grade 4 hypertransaminasemia non reversible by day 21) was identified ([4]; weekly 1 h infusion): 1200 mcg/m2 | Nonhematologic toxicity, laboratory abnormalities: Alk. phosphatase, Grade 1 [4, 8]: 27.8 | Nonhematologic toxicity, laboratory abnormalities: Alk. phosphatase, Grade 2 [4, 8]: 11.1 | Nonhematologic toxicity, laboratory abnormalities: Alk. phosphatase, Grade 3 [4, 8]: 0 | Nonhematologic toxicity, laboratory abnormalities: Alk. phosphatase, Grade 4 [4, 8]: 0 | Nonhematologic toxicity, laboratory abnormalities: Bilirubin, Grade 1 [4, 8]: 5.6 | Nonhematologic toxicity, laboratory abnormalities: Bilirubin, Grade 2 [4, 8]: 0 | Nonhematologic toxicity, laboratory abnormalities: Bilirubin, Grade 3 [4, 8]: 0 | Nonhematologic toxicity, laboratory abnormalities: Bilirubin, Grade 4 [4, 8]: 0 | Nonhematologic toxicity, laboratory abnormalities: CPK, Grade 1 [4, 8]: 36.8 | Nonhematologic toxicity, laboratory abnormalities: CPK, Grade 2 [4, 8]: 0 | Nonhematologic toxicity, laboratory abnormalities: CPK, Grade 3 [4, 8]: 0 | Nonhematologic toxicity, laboratory abnormalities: CPK, Grade 4 [4, 8]: 0 | Nonhematologic toxicity, laboratory abnormalities: Ca++ hyper, Grade 1 [4, 8]: 84.2 | Nonhematologic toxicity, laboratory abnormalities: Ca++ hyper, Grade 2 [4, 8]: 0 | Nonhematologic toxicity, laboratory abnormalities: Ca++ hyper, Grade 3 [4, 8]: 0 | Nonhematologic toxicity, laboratory abnormalities: Ca++ hyper, Grade 4 [4, 8]: 0 | Nonhematologic toxicity, laboratory abnormalities: Ca++ hypo, Grade 1 [4, 8]: 21.1 | Nonhematologic toxicity, laboratory abnormalities: Ca++ hypo, Grade 2 [4, 8]: 0 | Nonhematologic toxicity, laboratory abnormalities: Ca++ hypo, Grade 3 [4, 8]: 0 | Nonhematologic toxicity, laboratory abnormalities: Ca++ hypo, Grade 4 [4, 8]: 0 | Nonhematologic toxicity, laboratory abnormalities: Creatinine, Grade 1 [4, 8]: 31.6 | Nonhematologic toxicity, laboratory abnormalities: Creatinine, Grade 2 [4, 8]: 5.3 | Nonhematologic toxicity, laboratory abnormalities: Creatinine, Grade 3 [4, 8]: 0 | Nonhematologic toxicity, laboratory abnormalities: Creatinine, Grade 4 [4, 8]: 0 | Nonhematologic toxicity, laboratory abnormalities: GGT, Grade 1 [4, 8]: 16.7 | Nonhematologic toxicity, laboratory abnormalities: GGT, Grade 2 [4, 8]: 11.1 | Nonhematologic toxicity, laboratory abnormalities: GGT, Grade 3 [4, 8]: 5.6 | Nonhematologic toxicity, laboratory abnormalities: GGT, Grade 4 [4, 8]: 11.1 | Nonhematologic toxicity, laboratory abnormalities: GOT, Grade 1 [4, 8]: 38.9 | Nonhematologic toxicity, laboratory abnormalities: GOT, Grade 2 [4, 8]: 0 | Nonhematologic toxicity, laboratory abnormalities: GOT, Grade 3 [4, 8]: 0 | Nonhematologic toxicity, laboratory abnormalities: GOT, Grade 4 [4, 8]: 16.7 | Nonhematologic toxicity, laboratory abnormalities: GPT, Grade 1 [4, 8]: 22.2 | Nonhematologic toxicity, laboratory abnormalities: GPT, Grade 2 [4, 8]: 5.6 | Nonhematologic toxicity, laboratory abnormalities: GPT, Grade 3 [4, 8]: 0 | Nonhematologic toxicity, laboratory abnormalities: GPT, Grade 4 [4, 8]: 16.7 | Nonhematologic toxicity, laboratory abnormalities: K+ hypo, Grade 1 [4, 8]: 5.3 | Nonhematologic toxicity, laboratory abnormalities: K+ hypo, Grade 2 [4, 8]: 0 | Nonhematologic toxicity, laboratory abnormalities: K+ hypo, Grade 3 [4, 8]: 0 | Nonhematologic toxicity, laboratory abnormalities: K+ hypo, Grade 4 [4, 8]: 0 | Nonhematologic toxicity, laboratory abnormalities: Na+ hypo, Grade 1 [4, 8]: 21.1 | Nonhematologic toxicity, laboratory abnormalities: Na+ hypo, Grade 2 [4, 8]: 0 | Nonhematologic toxicity, laboratory abnormalities: Na+ hypo, Grade 3 [4, 8]: 0 | Nonhematologic toxicity, laboratory abnormalities: Na+ hypo, Grade 4 [4, 8]: 5.3 | Hematologic toxicity (worst per patient): Hemoglobin, Grade 1 [4, 9]: 57.9 | Hematologic toxicity (worst per patient): Hemoglobin, Grade 2 [4, 9]: 21.1 | Hematologic toxicity (worst per patient): Hemoglobin, Grade 3 [4, 9]: 0 | Hematologic toxicity (worst per patient): Hemoglobin, Grade 4 [4, 9]: 0 | Hematologic toxicity (worst per patient): Leukocytes, Grade 1 [4, 9]: 15.8 | Hematologic toxicity (worst per patient): Leukocytes, Grade 2 [4, 9]: 5.3 | Hematologic toxicity (worst per patient): Leukocytes, Grade 3 [4, 9]: 0 | Hematologic toxicity (worst per patient): Leukocytes, Grade 4 [4, 9]: 0 | Hematologic toxicity (worst per patient): Neutrophils, Grade 1 [4, 9]: 5.3 | Hematologic toxicity (worst per patient): Neutrophils, Grade 2 [4, 9]: 5.3 | Hematologic toxicity (worst per patient): Neutrophils, Grade 3 [4, 9]: 0 | Hematologic toxicity (worst per patient): Neutrophils, Grade 4 [4, 9]: 0 | Hematologic toxicity (worst per patient): Platelets, Grade 1 [4, 9]: 10.5 | Hematologic toxicity (worst per patient): Platelets, Grade 2 [4, 9]: 0 | Hematologic toxicity (worst per patient): Platelets, Grade 3 [4, 9]: 0 | Hematologic toxicity (worst per patient): Platelets, Grade 4 [4, 9]: 0 | Most frequently reported non-hematologic toxicities: Diarrhea, Grade 1 [4, 10]: 0 | Most frequently reported non-hematologic toxicities: Diarrhea, Grade 2 [4, 10]: 5.3 | Most frequently reported non-hematologic toxicities: Diarrhea, Grade 3 [4, 10]: 5.3 | Most frequently reported non-hematologic toxicities: Diarrhea, Grade 4 [4, 10]: 0 | Most frequently reported non-hematologic toxicities: Fatigue, Grade 1 [4, 10]: 21.1 | Most frequently reported non-hematologic toxicities: Fatigue, Grade 2 [4, 10]: 21.1 | Most frequently reported non-hematologic toxicities: Fatigue, Grade 3 [4, 10]: 0 | Most frequently reported non-hematologic toxicities: Fatigue, Grade 4 [4, 10]: 0 | Most frequently reported non-hematologic toxicities: Hypersensitivity, Grade 1 [4, 10]: 15.8 | Most frequently reported non-hematologic toxicities: Hypersensitivity, Grade 2 [4, 10]: 5.3 | Most frequently reported non-hematologic toxicities: Hypersensitivity, Grade 3 [4, 10]: 5.3 | Most frequently reported non-hematologic toxicities: Hypersensitivity, Grade 4 [4, 10]: 0 | Most frequently reported non-hematologic toxicities: Hypertension, Grade 1 [4, 10]: 0 | Most frequently reported non-hematologic toxicities: Hypertension, Grade 2 [4, 10]: 0 | Most frequently reported non-hematologic toxicities: Hypertension, Grade 3 [4, 10]: 0 | Most frequently reported non-hematologic toxicities: Hypertension, Grade 4 [4, 10]: 0 | Most frequently reported non-hematologic toxicities: Inject-site reaction, Grade 1 [4, 10]: 0 | Most frequently reported non-hematologic toxicities: Inject-site reaction, Grade 2 [4, 10]: 5.3 | Most frequently reported non-hematologic toxicities: Inject-site reaction, Grade 3 [4, 10]: 0 | Most frequently reported non-hematologic toxicities: Inject-site reaction, Grade 4 [4, 10]: 0 | Most frequently reported non-hematologic toxicities: Nausea, Grade 1 [4, 10]: 31.6 | Most frequently reported non-hematologic toxicities: Nausea, Grade 2 [4, 10]: 10.5 | Most frequently reported non-hematologic toxicities: Nausea, Grade 3 [4, 10]: 0 | Most frequently reported non-hematologic toxicities: Nausea, Grade 4 [4, 10]: 0 | Most frequently reported non-hematologic toxicities: Periph-sens neuro, Grade 1 [4, 10]: 36.8 | Most frequently reported non-hematologic toxicities: Periph-sens neuro, Grade 2 [4, 10]: 0 | Most frequently reported non-hematologic toxicities: Periph-sens neuro, Grade 3 [4, 10]: 5.3 | Most frequently reported non-hematologic toxicities: Periph-sens neuro, Grade 4 [4, 10]: 0 | Most frequently reported non-hematologic toxicities: Vomiting, Grade 1 [4, 10]: 10.5 | Most frequently reported non-hematologic toxicities: Vomiting, Grade 2 [4, 10]: 5.3 | Most frequently reported non-hematologic toxicities: Vomiting, Grade 3 [4, 10]: 0 | Most frequently reported non-hematologic toxicities: Vomiting, Grade 4 [4, 10]: 0 | dose limiting toxicity ([4]; weekly schedule): grade 4 hypertransaminasemia | time of hypertransaminasemia peak/appearance after the infusion ([4]; weekly schedule): 4 to 5 h | decrease in PSA level ([5]; one patient, associated with pain relief, preliminary report): > 50% | response evaluated by PSA, one patient ([5]; patient received 8 cycles, clinical improvement): partial response | PSA change in two additional patients ([5]; preliminary report): minor PSA reductions | maximum tolerated dose (MTD) [6]: 0.28 mg/kg
